Assay results from patent US4001280A, “Chromone derivatives” (Fujisawa Pharmaceutical Co., Ltd., priority 1972, dated 1977).

Tested on: Hyperimmune antiserum
Assay: Anti-allergic test in sensitized rats: percent inhibition of skin dye leakage (blue spot) for hyperimmune antiserum
Format: in vivo, Sprague-Dawley JCL strain rats
Conditions: p.o.
Description: Five male Sprague-Dawley JCL strain rates weighing 290-310g. were used for each dose. The animals were sensitized by intracutaneous injection of 0.1ml. of 5 times diluted reagin-like rat antiserum at 48 hours before egg albumin at their depilated backs and were injected 0.1ml. of 4 times diluted hyperimmune rat antiserum at 4 hours before. One ml. of mixture of egg albumin 5 mg. and Evans blue 5 mg. was injected intravenously. Immediately before 0.1ml. of 0.2% histamine solution was injected intracutaneously.
One hour after the injection of the antigen and dye, animals were sacrificed and the skin of the back was removed. The dye of blue spot was then extracted from the skin. The blue spot areas of the skin were punched out and were cut with clipper into small pieces. The small pieces per one blue spot were blended with 10 ml. of a 4:1 mixture of acetone and 2% solution of RBS-25 (Marumoto industrial Co., Ltd.) and rested for 16 hours. Five and 16 hours after, it was shaked for 30 minutes respectively. After centrifugation at 2000 rpm for 15 minutes, the optical density of the supernatant was determined at 620 mμ.
[…] The mean amount of dye of the test animals was compared with that of the control animals. The percent inhibition for each dose was calculated.

SMILES: CN1CCN(C(=O)c2cc(=O)c3c(OCCOc4ccccc4)cccc3o2)CC1
- inhibition % for Hyperimmune antiserum (pretreatment 30 min., dose 125 mg./kg.): 48.2%
- inhibition % for Hyperimmune antiserum (pretreatment 30 min., dose 250 mg./kg.): 66.7%
- inhibition % for Hyperimmune antiserum (pretreatment 60 min., dose 250 mg./kg.): 45.8%
- inhibition % for Hyperimmune antiserum (pretreatment 60 min., dose 500 mg./kg.): 46.5%
- inhibition % for Hyperimmune antiserum (pretreatment 120 min., dose 125 mg./kg.): 37.6%
- inhibition % for Hyperimmune antiserum (pretreatment 120 min., dose 250 mg./kg.): 40.6%
- inhibition % for Hyperimmune antiserum (pretreatment 120 min., dose 500 mg./kg.): 67.7%
